Values after ≈ are worked out from the molar mass of the structure shown. Where two headings read alike, the source gives them in different places.
Key:
[1] = tested on: MRSA-4; test: SEM analysis, cell long axis; type: cell-based, Methicillin-resistant S. aureus; conditions: 2 × MIC, 2 h, mean ± SD, PBS control 0.53 ± 0.04
Experimental: Scanning electron microscopy (SEM) was used to observe the morphological changes in bacterial cells treated with the isolated compounds. S. aureus ATCC 25923 and MRSA-4 were grown in MHB to mid-log phase (OD600 = 0.4–0.6) as previously described. The bacteria cultures were treated with AA, MA, or UA at 2 × MIC for 2 h at 37°C with shaking at 150 rpm. Untreated cultures (PBS group) served as the growth control. After incubation, bacterial cells were harvested by centrifugation and washed three times with PBS (pH 7.2). Coverslips (8 mm diameter) were cleaned with absolute ethanol under ultrasonication, air-dried, immersed in 0.1% (w/v) chitosan solution (dissolved in 1% acetic acid) for 5 s, and air-dried again at room temperature ([Su et al., 2022]). A 25 μL aliquot of the washed bacterial suspension was added to each coverslip and allowed to adhere for 1 h at room temperature. Adhered cells were fixed with 1 mL of 2.5% (v/v) glutaraldehyde at 4°C overnight. Fixed samples were rinsed 2–3 times with PBS (5 min per rinse), then dehydrated through a graded ethanol series: 50, 70, and 90% ethanol (each once for 5 min), followed by 100% ethanol (three times for 5 min each). After dehydration, samples were air-dried overnight at room temperature. SEM imaging was performed using an EVO 10 scanning electron microscope (Zeiss, Jena, Germany). Cell long-axis statistical analysis was conducted using ImageJ software (Version 1.42q, National Institutes of Health, MD, USA).
Having established the antibacterial activity of AA, MA, and UA, we next examined their effects on bacterial morphology. We employed SEM to examine the alterations induced by these compounds in S. aureus ATCC25923 and MRSA-4. Bacterial cultures were treated with AA, MA, or UA at 2 × MIC for 2 h, while untreated (PBS group) cultures served as negative controls. […] In PBS groups, both S. aureus ATCC25923 and MRSA-4 maintained typical spherical morphology with smooth and intact surfaces.

[2] = tested on: S. enterica subsp. Enterica (1.1114); test: MIC, broth microdilution (CLSI); type: cell-based, Salmonella enterica subsp. enterica; conditions: Salmonella enterica; S. enterica subsp. Enterica (1.1114); ≥ 90% growth inhibition, 18–24 h; read-out: MIC
From the text: (§1) Staphylococcus aureus ATCC25923 and Escherichia coli ATCC25922 were obtained from the American Type Culture Collection (ATCC, Manassas, VA, USA). The Methicillin-resistant S. aureus (MRSA) clinical isolate MRSA-4, previously confirmed as mecA-positive and characterized for its antibiotic resistance profile ([Sun et al., 2023]), was used in this study. Staphylococcus epidermidis (GDMCC 1.143), Enterococcus faecalis (GDMCC 1.164), and Salmonella enterica subsp. enterica (GDMCC 1.1114) were obtained from the Guangdong Microbial Culture Collection Center (GDMCC, Guangzhou, China). The Pseudomonas aeruginosa PA14 strain was kindly provided by Professor Min Wu (Southwest Medical University, China). All bacterial strains were routinely cultured in Mueller-Hinton broth (MHB) or Luria-Bertani (LB) broth medium at 37°C with shaking at 200 rpm. Vancomycin was purchased from Solarbio Science & Technology Co., Ltd. (Beijing, China), and oxacillin was obtained from Taiji Group Hengsheng Pharmaceutical Co., Ltd. (Chengdu, China). The polyclonal rabbit primary anti-body to FtsZ was purchased from Abcam PLC (Cambridge, UK). Alexa488-conjugated goat anti-rabbit IgG was purchased from ZSGB-BIO Biotechnology (Beijing, China). DAPI staining solution was purchased from Beyotime Biotechnology (Shanghai, China).
(§2) The minimum inhibitory concentrations (MICs) of the test compounds (AA, MA, and UA) were determined using the standard broth microdilution method in accordance with the Clinical and Laboratory Standards Institute (CLSI) guidelines ([Humphries et al., 2021]). Bacteria were cultured in MHB or LB broth at 37°C with shaking (200 rpm) to the logarithmic phase, then diluted to a final density of 1 × 10^6 CFU/mL. Test compounds (dissolved in DMSO) and positive controls (vancomycin and oxacillin) were diluted in MHB and serially twofold diluted in 96-well plates. Each well was inoculated with 100 μL of bacterial suspension (1 × 10^6 CFU/mL), yielding a final bacterial density of 5 × 10^5 CFU/mL and a total volume of 200 μL. The final concentrations tested were 128 to 1 μg/mL for AA, MA, and UA; 16 to 0.5 μg/mL for vancomycin; and 64 to 0.0625 μg/mL for oxacillin. DMSO was used as a solvent control. Plates were incubated statically at 37°C for 18–24 h. After incubation, the OD600 was measured using a microplate reader (SpectraMax i3x, Molecular Devices, CA, USA). The MIC was defined as the lowest compound concentration that caused ≥ 90% inhibition of bacterial growth compared to the drug-free growth control. All tests were performed in three independent biological replicates.
(§3) Following the isolation and identification of AA, MA, and UA from ECPL, we evaluated their antibacterial activity and spectrum. The MICs of the compounds were determined against MRSA-4, S. aureus ATCC25923, S. epidermidis, and E. faecalis (Gram-positive), as well as P. aeruginosa PA14, E. coli ATCC25922, and S. enterica subsp. Enterica (Gram-negative) using the standard broth microdilution method in accordance with CLSI guidelines ([Humphries et al., 2021]).

[3] = tested on: MRSA-4; test: Time-dependent killing assay; type: cell-based, Methicillin-resistant S. aureus; conditions: for time-kill outcome at 1 × and 2 × MIC: 1 × or 2 × MIC, initial reduction within 2 h, regrowth by 24 h; for nature of antibacterial effect (time-kill assays): MRSA-4
Experimental: An overnight culture of MRSA-4 was diluted 1:100 in fresh MHB and incubated at 37°C with shaking (200 rpm) until reaching mid-log phase (OD600 = 0.4–0.6). The culture was then adjusted to 1 × 10^6 CFU/mL and treated with AA, MA, or UA at concentrations of 1×, 2×, and 4 × MIC. 2 × MIC of vancomycin was used as a positive control, and an equivalent volume of DMSO served as the negative control. The cultures were incubated at 37°C with shaking (200 rpm) during the assay. At designated time points (0, 1, 2, 4, 8, and 24 h), samples were collected, serially diluted tenfold in sterile PBS, and 100 μL of appropriate dilutions were plated on LB agar. Plates were incubated at 37°C for 18–24 h, and viable bacteria were quantified. All experiments were performed in biological triplicates.
We next performed time-kill kinetics assays to characterize the time-dependent antibacterial effects of AA, MA, and UA against MRSA-4. Bacterial cultures were exposed to AA, MA, and UA at 1×, 2×, and 4 × their respective MICs, and viable CFU were counted at designated time points (0, 1, 2, 4, 8, and 24 h). As shown in the time-kill curves (Figure 1), treatment with 1 × or 2 × MIC of AA, MA, or UA led to an initial reduction in bacterial load within the first 2 h.

[4] = tested on: S. epidermidis (1.143); test: MIC, broth microdilution (CLSI); type: cell-based; conditions: Staphylococcus epidermidis
From the text: as §1, §2, §3

[5] = S. epidermidis (1.143), ≥ 90% growth inhibition, 18–24 h, read-out: MIC

| Structure (SMILES) | length of long axis of cells [1] | MIC [2] | time-kill outcome at 1 × and 2 × MIC [3] | bacterial counts (below the detection limit) ([3]; 4 × MIC) | reduction of viable bacterial counts ([3]; 4 × MIC, within 2 h) | nature of antibacterial effect (time-kill assays) [3] | MIC [4, 5] | reduction of viable bacterial counts ([3]; 4 × MIC, at/over 24 h) | MIC [4] |
| --- | --- | --- | --- | --- | --- | --- | --- | --- | --- |
| C[C@H]1[C@H](C)CC[C@]2(C(=O)O)CC[C@]3(C)C(=CC[C@@H]4[C@@]5(C)C[C@@H](O)[C@H](O)[C@@](C)(CO)[C@@H]5CC[C@]43C)[C@H]12 [AA, asiatic acid] | 0.75 ± 0.07 μm | > 128 µg/mL | primarily bacteriostatic activity | < 2 log10 CFU/mL | > 3 log10 CFU/mL | bactericides | 16 µg/mL (≈ 32.7 µM) |  |  |
| C[C@H]1[C@H](C)CC[C@]2(C(=O)O)CC[C@]3(C)C(=CC[C@@H]4[C@@]5(C)CC[C@H](O)C(C)(C)[C@@H]5CC[C@]43C)[C@H]12 [UA, ursolic acid] | 0.69 ± 0.06 μm | > 128 µg/mL | primarily bacteriostatic activity |  |  | bacteriostatic | 8 µg/mL (≈ 17.5 µM) | ≤ 3 log10 CFU/mL |  |
| CC1(C)CC[C@]2(C(=O)O)CC[C@]3(C)C(=CC[C@@H]4[C@@]5(C)C[C@@H](O)[C@H](O)C(C)(C)[C@@H]5CC[C@]43C)[C@@H]2C1 [MA, maslinic acid] | 0.76 ± 0.10 μm | > 128 µg/mL | primarily bacteriostatic activity |  |  | bactericides |  | > 3 log10 CFU/mL | 8 µg/mL (≈ 16.9 µM) |

Reference: PMC12213745, “Compounds from Cyclocarya paliurus leaves inhibit binary division of methicillin-resistant Staphylococcus aureus by disrupting FtsZ dynamic” (Frontiers in Microbiology, 2025)
